Measured values published in patent US8592374B2, “Neurotrophic peptides” (Research Foundation for Mental Hygiene, Inc., priority 2007, dated 2013).

What was measured:
[1] = tested on: dentate gyrus progenitor cells; assay: Cell proliferation (BrdU labeled cells) in the dentate gyrus of mice given CNTF peptides i.p.; format: in vivo; conditions: for proliferation of dentate gyrus progenitor cells: BrdU labeling, 8-10 month old female C57BL6 mice
From the text: (§1) All experiments involving mice were done on 8-10 month old female retired breeders of C57BL6 background. A total of 33 mice were divided into 10 groups of 3 animals each (except control group which had 6 mice). The groups are described in Table 1. Details of CNTF peptides are described in Table 2.
(§2) The animals were kept in groups of 3 per cage. The mice were given daily intraperitoneal injections of four CNTF peptides either separately or in a mixture for 2 weeks as described in Table 1. From day 2, BrdU (Bromodeoxyuridine; 150 mg/Kg) was added to the injections. The animals were sacrificed 24 hours after the last injection. Briefly, the animals were perfused transcardially with PBS and their brains taken out and dissected into halves. One hemisphere from each animal was frozen for biochemical analysis and the other was fixed in 4% paraformaldehyde for 48 hours followed by equilibration in 30% sucrose in PBS overnight. These were then processed for immunohistochemistry.
Fixed tissues were cut into 40 μm sections on a freezing sliding microtome. One in 5 sections per brain was processed for BrdU staining and visualized by immunoflorecence. Cell counting was done on these sections to determine the number of BrdU labeled cells (representing newly born cells) in the dentate gyrus of the hippocampus. The area of counting was limited to the granule cell layer and the subgranular zone (a two-nucleus thick layer adjacent to the granule cell layer). For counting purposes, the dentate gyrus was divided into two areas, the outer granule cell layer (oGCL) consisting of one half of the granule cell layer, and the subgranular zone (SGZ) of the inner half (towards the hilus) of the granule cell layer plus a two-nucleus thick layer adjacent to the outer border of the hilus. Cell counting was done on confocal images of the sections according to the optical dissector principle. Volumetric analysis was carried out with the help of Image Pro software.
as §2, with “table” for “Table”, “injection (FIG. 1).” for “injection.”
(§3) Fixed tissues were cut into 40 μm sections on a freezing sliding microtome. One in 5 sections per brain was processed for BrdU staining and visualized by immunoflorecence. Cell counting was done on these sections to determine the number of BrdU labeled cells (representing newly born cells) in the dentate gyrus of the hippocampus. The area of counting was limited to the granule cell layer and the subgranular zone (a two-nucleus thick layer adjacent to the granule cell layer). For counting purposes, the dentate gyrus was divided into two areas, the outer granule cell layer (oGCL) consisting of out half of the granule cell layer, and the […] comprising of the inner half (towards the hilus) of the granule cell layer plus a two-nucleus thick layer adjacent to the outer border of the hilus. Cell counting was done on confocal images of the sections according to the optical dissector principle. Volumetric analysis was carried out with the help of Image Pro software.

[2] = tested on: dentate gyrus progenitors; assay: DCX expression in BrdU labeled progenitors in the dentate gyrus; format: in vivo, mice; conditions: 14 day treatment group
From the text: as §1
as §2, with “table” for “Table”, “injection (FIG. 1).” for “injection.”
as §3

[3] = daily i.p. injections for 2 weeks
[4] = both concentrations (0.5 and 5 nmoles/animal)

Row | Sequence | proliferation of dentate gyrus progenitor cells [1, 3] | differentiation of dentate gyrus progenitors into DCX (doublecortin) expressing cells [2] | cell proliferation in the SGZ (subgranular zone) [1, 4] | cell proliferation in the oGCL (outer portion of the granule cell layer) [1, 4] | proliferation of dentate gyrus progenitor cells compared with Peptide 9 [1, 3] | cell proliferation in the SGZ ([1]; 0.5 nmoles/animal)
1 | CHQGCGGLFEC [Peptide 10, CNTF loop peptide, used as control] | no effect | did not have any effect | – | – | – | –
2 | IPRNEADGMPINV (neurotrophic and/or neurogenic peptide) [Peptide 5] | statistically significant increase | did not have any effect | increased cell proliferation | increased cell proliferation | more proliferation than Peptide 9 | –
3 | EDQQVHFTPTEG (neurotrophic and/or neurogenic peptide) [Peptide 9] | statistically significant increase | did not have any effect | – | – | – | increased cell proliferation
